The record followed here is patent US20230084927A1, “GLUCOSE UPTAKE INHIBITORS AND USES THEREOF” (METABOMED LTD., priority 2019, published 2023).

Assay [1] relates to SDH-KO-HRAS cells (SDHB-deficient). As to the kind of experiment: Cellular / differential toxicity assay (CellTiter-Glo, 3 days). Format: cell-based, murine. The following applies: for EC50: toxicity, SDH-KO cells, 3 days, CellTiter-Glo, read-out: EC50 (uM) SDH-KO-HTAS-C17. The protocol:
(§1) Identification of compounds that target specifically SDH-deficient cells was done by screening a library of small-molecule by using a differential toxicity screen with SDHB-proficient vs. SDHB-deficient cells (the […] cells were described in Cardaci 2015).
(§2) Cells Used for the Differential Assays: SDH-WT; SDH-KO-HRAS
(§3) Cell Culture Conditions: • Medium: DMEM-F12 medium+1 mM Glutamine+3% FBS • Plates: 96 well plate—Black, clear flat bottom • Incubation time: 3 days • Compound concentration: 10 point dilution starting from 10 uM to 0.0065 uM or a lower range when needed. • Viability assay at the end of incubation: Celltiter-Glo (CTG) from Promega.
(§4) Protocol: • Day 1: Plate cells in 96 well plate together with the appropriate concentration of compound.
(§5) Incubate for 3 days at 37° C. in 5% CO2 tissue culture incubator. • Day 4: Check viability of cells by adding CTG reagent and read luminescence in plate reader
(§6) SDH-WT and SDH-KO cells were grown in DMEM F12 supplemented with 1 mM Glutamine+3% FBS were treated with different concentrations of the indicated compounds in FIG. 11. Cell viability was determined 72 hours later by CellTiter Glue reagent (Promega), the luminescence was measured with ClarioStar reader (BMG) and the EC50s were calculated by Prism.
(§7) SDH-WT and SDH-KO cells were grown in DMEM F12 supplemented with 1 mM Glutamine+3% FBS were treated with different concentrations of the indicated compounds. Cell viability was determined 72 hours later by CellTiter Glue reagent (Promega), the luminescence was measured with ClarioStar reader (BMG) and the EC50s were calculated by Prism.
(§8) The cells were grown in DMEM F12 supplemented with 1 mM Glutamine+3% FBS were treated with different concentrations of the indicated compounds. Cell viability was determined 72 hours later by CellTiter Glue reagent (Promega), the luminescence was measured with ClarioStar reader (BMG) and the EC50s were calculated by Prism. Murine SDHB-WT/KO, HRAS transformed isogenic pair (FIG. 12A); UOK269, Human Tumor-derived SDHB-deficient RCC in their WT counterpart with re-expression of SDHB (FIG. 12B); and ACHN, RCC cells, and their SDHB-KO (SDHB CRISPRed out) isogenic cells (FIG. 12C).

For assay [2], the system named is SDH-WT cells. Described as above. Format: cell-based, murine. The following applies: toxicity, SDH-WT cells, 3 days, CellTiter-Glo, read-out: EC50 (uM) SDH-WT. As to the method: as §1, §2, §3, §4, §5, §6, §7, §8

Where two headings read alike, the source gives them in different places.

With `Cc1nc(NCC(C)C)c2sc3nc4c(cc3c2n1)COC(C)(C)C4` [Compound 220], the concentration for a half-maximal effect (EC50) is > 10 µM in assay [1] (Mus musculus, 72 h) and > 10 µM in assay [2] (Mus musculus, 72 h).
In the case of `CC1(C)Cc2nc3sc4c(NCCc5ccc6[nH]cnc6c5)ncnc4c3c(C(=O)OCCCCCCCCCCCCCCCC(=O)O)c2CO1` [Compound 211], the half-maximal effective concentration (EC50) fell in the range of 3 to 10 µM in assay [1] (Mus musculus, 72 h) and 3 to 10 µM in assay [2] (Mus musculus, 72 h).
For `CN(C)Cc1c2c(nc3sc4c(NCCc5ccc6[nH]cnc6c5)ncnc4c13)CC(C)(C)OC2` [Compound 334], the EC50 was < 1 µM in assay [1] (Mus musculus, 72 h) and 3 to 10 µM in assay [2] (Mus musculus, 72 h).
Taken in the same sequence, the figures for `CCN(CC)c1nc(C)nc2c1sc1nc3c(cc12)COC(C)(C)C3` [Compound 253] were > 10 µM and > 10 µM.
Taken in the same sequence, the figures for `CC1(C)Cc2nc3sc4c(NCCc5cncnc5)ncnc4c3cc2CO1` [Compound 123] were > 10 µM and > 10 µM.
Taken in the same sequence, the figures for `CCCCCCCCCNc1ncnc2c1sc1nc3c(cc12)COC(C)(C)C3` [Compound 249] were > 10 µM and > 10 µM.
For the molecule `CCCCNc1ncnc2c1sc1nc3c(cc12)COC(C)(C)C3` [Compound 217], the EC50 in assay [1] lay within 1 to 3 µM; in assay [2], 3 to 10 µM.
`CCCCCNc1nc(C)nc2c1sc1nc3c(cc12)COC(C)(C)C3` [Compound 262]: the 50% effective concentration (EC50) in assay [1] (Mus musculus, 72 h) is > 10 µM; in assay [2] (Mus musculus, 72 h), > 10 µM.
For the molecule `CC1(C)Cc2nc3sc4c(N5CCCC5)ncnc4c3cc2CO1` [Compound 298], the half-maximal effective concentration (EC50) is > 10 µM in assay [1] (Mus musculus, 72 h) and > 10 µM in assay [2] (Mus musculus, 72 h).
As for `CCCCCCNc1nc(C)nc2c1sc1nc3c(cc12)COC(C)(C)C3` [Compound 215], the half-maximal effective concentration (EC50) is > 10 µM in assay [1] (Mus musculus, 72 h) and > 10 µM in assay [2] (Mus musculus, 72 h).
For the molecule `COCCOCCOCCOCCNCc1c2c(nc3sc4c(NCCc5ccc6[nH]cnc6c5)ncnc4c13)CC(C)(C)OC2` [Compound 321, N-(2-(1H-Benzo[d]imidazol-5-yl)ethyl)-8,8-dimethyl-11-(5,8,11,14-tetraoxa-2-azapentadecyl)-7,10-dihydro-8H-pyrano[3″,4″:5′,6′]pyrido[3′,2′:4,5]thieno[3,2-d]pyrimidin-4-amine], the EC50 in assay [1] (Mus musculus, 72 h) is 1 to 3 µM; in assay [2] (Mus musculus, 72 h), 3 to 10 µM.
Take `CC1(C)Cc2nc3sc4c(NCCc5ccc(C(N)=O)cc5)ncnc4c3cc2CO1` [Compound 144]: the concentration giving a half-maximal response (EC50) in assay [1] (Mus musculus, 72 h) was < 1 µM; in assay [2] (Mus musculus, 72 h), > 10 µM.
For `CC(CNc1ncnc2c1sc1nc3c(cc12)COC(C)(C)C3)c1ccc2c(c1)ncn2C` (stereo not drawn) [Compound 172] the same measures were 3 to 10 µM and 3 to 10 µM.
For `Cc1nc2cc(CCNc3ncnc4c3sc3nc5c(cc34)COC(C)(C)C5)ccc2[nH]1` [Compound 194] the same measures were < 1 µM and < 1 µM.
Taken in the same sequence, the figures for `CC1(C)Cc2nc3sc4c(NCCO)ncnc4c3cc2CO1` [Compound 257] were > 10 µM and > 10 µM.
Turning to `CC1(C)Cc2nc3sc4c(NCCc5ccc(N6CCCC6=O)cc5)ncnc4c3cc2CO1` [Compound 156], the EC50 in assay [1] (Mus musculus, 72 h) was 1 to 3 µM; in assay [2] (Mus musculus, 72 h), > 10 µM.
Taken in the same sequence, the figures for `CC1(C)Cc2nc3sc4c(NCCc5ccc6c(c5)OCCO6)ncnc4c3cc2CO1` [Compound 131] were > 10 µM and > 10 µM.
For `CC1(C)Cc2nc3sc4c(NCCc5ccc(NC(=O)C(F)(F)F)c([N+](=O)[O-])c5)ncnc4c3cc2CO1` [Compound 182] the same measures were 1 to 3 µM and 3 to 10 µM.
As for `CNc1ccc(CCNc2ncnc3c2sc2nc4c(cc23)COC(C)(C)C4)cc1[N+](=O)[O-]` [Compound 180], the half-maximal effective concentration (EC50) in assay [1] (Mus musculus, 72 h) is < 1 µM; in assay [2] (Mus musculus, 72 h) it was 3 to 10 µM.
Regarding `COc1ccccc1CCNc1ncnc2c1sc1nc3c(cc12)COC(C)(C)C3` [Compound 128], the EC50 in assay [1] (Mus musculus, 72 h) lay within 3 to 10 µM; in assay [2] (Mus musculus, 72 h), 3 to 10 µM.
Take `COc1ccc(CCNC(=O)c2sc3nc4c(cc3c2N)COC(C)(C)C4)cc1F` [Compound 208]: the concentration giving a half-maximal response (EC50) in assay [1] (Mus musculus, 72 h) is > 10 µM; in assay [2] (Mus musculus, 72 h), > 10 µM.
On to `COc1ccc(CCNc2ncnc3c4c(sc23)=NC2CC(C)(C)OCC2C=4)c(OC)c1` (stereo not drawn) [Compound 125], for which the EC50 was 1 to 3 µM in assay [1] (Mus musculus, 72 h) and > 10 µM in assay [2] (Mus musculus, 72 h).
For `CC1(C)Cc2nc3sc4c(NCCc5ccc6[nH]cnc6c5)ncnc4c3c(COc3ccccc3)c2CO1` [Compound 322, N-(2-(1H-Benzo[d]imidazol-5-yl)ethyl)-8,8-dimethyl-11-(phenoxymethyl)-7,10-dihydro-8H-pyrano[3″,4″:5′,6′]pyrido[3′,2′:4,5]thieno[3,2-d]pyrimidin-4-amine] the same measures were < 1 µM and < 1 µM.
For `CC1(C)Cc2nc3sc4c(NCCc5ccc6[nH]cnc6c5)ncnc4c3c(C(=O)OCCCCCCCCCCCC(=O)O)c2CO1` [Compound 212] the same measures were 3 to 10 µM and 3 to 10 µM.
For `COCCOCCOCCOCc1c2c(nc3sc4c(NCCc5ccc6[nH]cnc6c5)ncnc4c13)CC(C)(C)OC2` [Compound 305] the same measures were < 1 µM and > 10 µM.
Regarding `CCCc1nc(NCCc2ccc3[nH]cnc3c2)c2sc3nc4c(cc3c2n1)COC(C)(C)C4` [Compound 314], the 50% effective concentration (EC50) in assay [1] (Mus musculus, 72 h) was in the range of 3 to 10 µM; in assay [2] (Mus musculus, 72 h), 3 to 10 µM.
For the molecule `Cc1nc(NCC2CCCO2)c2sc3nc4c(cc3c2n1)COC(C)(C)C4` (stereo not drawn) [Compound 231], the EC50 in assay [1] (Mus musculus, 72 h) is > 10 µM; in assay [2] (Mus musculus, 72 h) it was > 10 µM.
`CC1(C)Cc2nc3sc4c(NCCc5ccncc5)ncnc4c3cc2CO1` [Compound 127]: the EC50 in assay [1] (Mus musculus, 72 h) is > 10 µM; in assay [2] (Mus musculus, 72 h), > 10 µM.
In the case of `CC1(C)Cc2nc3sc4c(NCc5cccnc5)ncnc4c3cc2CO1` [Compound 277], the 50% effective concentration (EC50) in assay [1] (Mus musculus, 72 h) was > 10 µM; in assay [2] (Mus musculus, 72 h) it was > 10 µM.
On to `COCCOCCOCCN(C)Cc1c2c(nc3sc4c(NCCc5ccc6[nH]cnc6c5)ncnc4c13)CC(C)(C)OC2` [Compound 331, N-(2-(1H-Benzo[d]imidazol-5-yl)ethyl)-8,8-dimethyl-11-(2-methyl-5,8,11-trioxa-2-azadodecyl)-7,10-dihydro-8H-pyrano[3″,4″:5′,6′]pyrido[3′,2′:4,5]thieno[3,2-d]pyrimidin-4-amine], for which the concentration giving a half-maximal response (EC50) was < 1 µM in assay [1] (Mus musculus, 72 h) and 3 to 10 µM in assay [2] (Mus musculus, 72 h). In addition, in assay [1] (viability EC50s, 72 hours, Example 6), the “differential toxicity, SDH-KO cells compared to SDH-WT cells” value was > 42.
For the molecule `C=CCNc1ncnc2c1sc1nc3c(cc12)COC(C)(C)C3` [Compound 221], the EC50 in assay [1] is > 10 µM; in assay [2] (Mus musculus, 72 h) it was > 10 µM.
On to `CC1(C)Cc2nc3sc4c(NCc5ccccc5)ncnc4c3cc2CO1` [Compound 135], for which the EC50 was > 10 µM in assay [1] (Mus musculus, 72 h) and > 10 µM in assay [2] (Mus musculus, 72 h).
Take `CCN(CC)c1ncnc2c1sc1nc3c(cc12)COC(C)(C)C3` [Compound 297]: the 50% effective concentration (EC50) in assay [1] (Mus musculus, 72 h) was 3 to 10 µM; in assay [2] (Mus musculus, 72 h), > 10 µM.
`CC1(C)Cc2nc3sc4c(NCCc5ccc6[nH]c(N)nc6c5)ncnc4c3cc2CO1` [Compound 189]: the concentration giving a half-maximal response (EC50) was < 1 µM in assay [1] (Mus musculus, 72 h) and 1 to 3 µM in assay [2] (Mus musculus, 72 h).
With `CCCCNc1ncnc2c1sc1nc3c(cc12)COC(C)(C)C3` [Compound 294], the EC50 in assay [1] and in assay [2] was > 10 µM each time.
On to `COc1ccc(CCOc2ncnc3c2sc2nc4c(cc23)COC(C)(C)C4)cc1F` [Compound 153], for which the EC50 in assay [1] (Mus musculus, 72 h) is > 10 µM; in assay [2] (Mus musculus, 72 h), > 10 µM.
For `CCOC1CCc2nc3sc4c(NCCc5ccc(OC)c(F)c5)ncnc4c3cc2C1` (stereo not drawn) [Compound 101], the concentration for a half-maximal effect (EC50) is > 10 µM in assay [1] (Mus musculus, 72 h) and > 10 µM in assay [2] (Mus musculus, 72 h).

What is called EC50 is the concentration at which the effect is half-maximal.
